In US11072606B2, “Compositions and methods for treating diseases and conditions” (University of Pittsburgh—Of the Commonwealth System of …, priority 2014, dated 2021):
Converted amounts (≈) assume the structure as drawn.

Key:
[1] = U937 monocyte cell death, Trypan blue staining; format: cell-based; details: human; U937 monocytes, compound for 16 hours, Trypan blue dead cells; read-out: LC50
Description: U937 monocytes (0.2 ml at 0.3×10^6/ml) were treated with each compound at different concentrations for 16 hours. The cells were then stained with Trypan blue to identify dead cells, and to calculate the LC50. Combined values were used to generate therapeutic indexes (TI)=LC50/IC50.

TNFα cytokine release = assay: LPS-induced TNFα cytokine release in PBMC (ELISA); format: cell-based; details: LPS 50 ng/ml for 16 hours concurrently with compound, TNFα by ELISA
Description: Peripheral blood mononuclear cells (PBMC) (0.2 ml at 0.3×10^6/ml) were treated with lipopolysaccharide (LPS) (50 ng/ml) for 16 hours concurrently with each compound tested at different concentrations. TNFα cytokine release was monitored by ELISA. These concentrations were used to calculate the IC50.

[2] = system: LPS induced lung inflammation; assay: LPS induced lung inflammation in mice (FIG. 5); format: in vivo; details: compound P.O., LPS 3 mg/kg i.t., 18 h, lavage protein, cell counts, cytokine secretion, *P<0.05 versus Vehicle
Description: BC-1421 was administered to mice though P.O., and mice were then immediately challenged with LPS (3 mg/kg, i.t.) for an additional 18 h. Mice were then euthanized and lungs were lavaged with saline, harvested, and then homogenized. Lavage protein, cell counts and cytokine secretion were measured in. The data represent n=4-5 mice/group, *P<0.05 versus Vehicle.

SMILES | CC50 at 16 h [1] | IC50 (TNFα cytokine release) | LPS induced lung inflammation [2]
c1ccc(-c2ncc(CNCCNCc3cnc(-c4ccccc4)nc3)cn2)cc1 [Compound 208] | 10 to 100 mg/L (≈ 25.2 to 252 µM) | 2 to 20 mg/L (≈ 5.04 to 50.4 µM) | 
c1nc(N2CCCC2)ncc1CNCCCCNCc1cnc(N2CCCC2)nc1 [Compound 210] | 1 to 10 mg/L (≈ 2.44 to 24.4 µM) | < 2 mg/L | 
c1ncc(-c2ccc(CNCCNCc3ccc(-c4cncnc4)cc3)cc2)cn1 [Compound 201] | > 100 mg/L | < 2 mg/L | 
C[C@H](CNCc1ccc(-c2ncccn2)cc1)NCc1ccc(-c2ncccn2)cc1 [Compound 205] | > 100 mg/L | < 2 mg/L | 
c1nnc(-c2ccc(CNCCNCc3ccc(-c4nnco4)cc3)cc2)o1 [Compound 202] | > 100 mg/L | < 2 mg/L | 
CC(C)(CNCc1ccc(-c2ncccn2)cc1)NCc1ccc(-c2ncccn2)cc1 [Compound 206] | > 100 mg/L | < 2 mg/L | 
CC(C)(NCc1ccc(-c2ncccn2)cc1)C(C)(C)NCc1ccc(-c2ncccn2)cc1 [Compound 207] | > 100 mg/L | 2 to 20 mg/L (≈ 4.42 to 44.2 µM) | 
C[C@@H](CNCc1ccc(-c2ncccn2)cc1)NCc1ccc(-c2ncccn2)cc1 [Compound 204] | > 100 mg/L | < 2 mg/L | 
Fc1cc(CNCCNCc2ccc(-c3ncccn3)c(F)c2)ccc1-c1ncccn1 [BC-1421, N^1,N^2-bis(3-fluoro-4-(pyrimidin-2-yl)benzyl)ethane-1,2-diamine] |  |  | reduces LPS induced lung inflammation
c1ncn(-c2ccc(CNCCNCc3ccc(-n4cncn4)cc3)cc2)n1 [Compound 203] | > 100 mg/L | 2 to 20 mg/L (≈ 5.34 to 53.4 µM) | 
c1ccc(-c2ncc(CNCCNCc3cnc(-c4ccccn4)nc3)cn2)nc1 [Compound 209] | 10 to 100 mg/L (≈ 25.1 to 251 µM) | 2 to 20 mg/L (≈ 5.02 to 50.2 µM) | 
